The values that follow come from US20250276063A1, “PLACENTA-DERVIED NK CELLS AS A SENOL YTIC FOR THERAPEUTIC AND OTHER USES” (Celularity Inc., priority 2021, published 2025).

One test concerns CD34+ cells. Nature of the test: NK cell expansion from CD34+ cells cultured with compound, Day 35. In kind it is cell-based, human. To be noted: for supported NK expansion: compound 10 μM during the first 14 days of the culture; for expansion compared to SR1 at Day 35: compound 10 μM, SR1 10 μM positive control. The text has this: UCB CD34+ cells were cultivated in presence of cytokines including thrombopoietin, SCF, Flt3 ligand, IL-7, IL-15 and IL-2 for 35 days to produce three-stage NK cells, as described in Example 1. Multi-color flow cytometry was used to determine the phenotypic characteristics of three-stage NK cells.
(§1) For biological testing, the compounds were provided to culture to evaluate their effects on NK cell expansion and differentiation. Specifically, donors of CD34+ cells (StemCell Technology) were thawed and expanded in vitro following NK culture protocol. During the first 14 days of the culture, each CRL compounds was dissolved in DMSO and added to the culture at 10 μM concentration. SR1 (at 10 μM) served as a positive control compound, while DMSO alone without any compound served as a negative control. At the end of the culture on Day 35, cell expansion, natural killer (NK) cell differentiation and cytotoxicity of the cells against K562 tumor cell line were characterized. Due to the large number of the compounds, the testing was performed in two experiments, CRL1-11 and CRL 12-22. The same donors were used for each experiment. Positive and negative controls were also included in both experiments.

The test system of another test is K562 tumor cells. The test can be described thus: Cytotoxicity assay of compound cultured cells against K562 tumor cells. In kind it is cell-based. The settings on record: 10:1 effector to target ratio; both donors. The procedure:
as §1
Cytotoxicity assay was run using compound cultured cells against K562 tumor cells at 10:1 effector to target ratio (FIG. 5) to evaluate cell functions.

As to `CCC(C)Nc1cc(-c2cncc(C#N)c2)nc(NCCc2c[nH]c3ccccc23)n1` (centres unmarked) [CRL7, 5-(2-((2-(1H-indol-3-yl)ethyl)amino)-6-(sec-butylamino)pyrimidin-4-yl)nicotinonitrile], the “supported NK expansion” value with CD34+ cells was “all the compounds except CRL7 and CRL13 supported PNK-007 expansion and differentiation”.

For `CCC(C)Nc1nc(NCCc2c[nH]c3ccccc23)c2ccccc2n1` (centres unmarked) [CRL13, N^4-(2-(H-indol-3-yl)ethyl)-N^2-(sec-butyl)quinazoline-2,4-diamine], the “supported NK expansion” value in the test with CD34+ cells was “all the compounds except CRL7 and CRL13 supported PNK-007 expansion and differentiation”. `CC(C)c1csc2c(NCCc3c[nH]c4ccccc34)nc(-c3cncc(C#N)c3)nc12` [CRL17, 5-(4-((2-(1H-indol-3-yl)ethyl)amino)-7-isopropylthieno[3,2-d]pyrimidin-2-yl)nicotinonitrile]: in the test on K562 tumor cells, the “killing activities compared to cells cultured with SR1” value is given as “increased killing activities of the cells”. In addition, in the test on CD34+ cells, the “expansion compared to SR1 at Day 35” value is given as “slightly less expansion compared to SR1”. Take `CC(C)c1csc2c(NCCc3c[nH]c4ccccc34)nc(-c3cncc(F)c3)nc12` [CRL18, N-(2-(1H-indol-3-yl)ethyl)-2-(5-fluoropyridin-3-yl)-7-isopropylthieno[3,2-d]pyrimidin-4-amine]: the “killing activities compared to cells cultured with SR1” value with K562 tumor cells is given as “increased killing activities of the cells”. In addition, the “expansion compared to SR1 at Day 35” value with CD34+ cells is “slightly less expansion compared to SR1”. For the compound `Fc1cncc(-c2nc(NCCc3c[nH]c4ccccc34)c3occc3n2)c1` [CRL19, N-(2-(1H-indol-3-yl)ethyl)-2-(5-fluoropyridin-3-yl)furo[3,2-d]pyrimidin-4-amine], the “supported NK expansion” value with CD34+ cells is on record as “supported cell expansion the best”.

For the compound `Cc1cncc(-c2nc(NCCc3c[nH]c4ccccc34)c3occc3n2)c1` [CRL20, N-(2-(1H-indol-3-yl)ethyl)-2-(5-methylpyridin-3-yl)furo[3,2-d]pyrimidin-4-amine], the “supported NK expansion” value in the test with CD34+ cells was “supported cell expansion the best”.

As to `Cc1cncc(-c2nc(NCCc3c[nH]c4ccccc34)c3scc(C(C)C)c3n2)c1` [CRL21, N-(2-(1H-indol-3-yl)ethyl)-7-isopropyl-2-(5-methylpyridin-3-yl)thieno[3,2-d]pyrimidin-4-amine], the “killing activities compared to cells cultured with SR1” value in the test on K562 tumor cells is “increased killing activities of the cells”. Also, the “expansion compared to SR1 at Day 35” value in the test with CD34+ cells was “slightly less expansion compared to SR1”. As to `N#Cc1cncc(-c2nc(NCCc3c[nH]c4ccccc34)c3occc3n2)c1` [CRL22, 5-(4-((2-(1H-indol-3-yl)ethyl)amino)furo[3,2-d]pyrimidin-2-yl)nicotinonitrile], the “supported NK expansion” value in the test on CD34+ cells is “supported cell expansion the best”.
